From the NIST ThermoML archive (doi:10.1016/j.fluid.2015.03.048)

Assay: xn = mol fraction of the nth substance listed
Settings: 303.15 K, 100 kPa, Liquid; for viscosity: Capillary tube (Ostwald / Ubbelohde) method; for excess molar volume: Direct dilatometry; for speed of sound: Frequency=3 MHz, Sing-around technique in a fixed-path interferometer; for mass density: Pycnometric method

Cc1ccccc1[N+](=O)[O-] [2-nitrotoluene] + CC(=O)N(C)C
Settings | excess molar volume [m3/mol] | mass density [kg/m3] | speed of sound [m/s] | viscosity [mPa·s]
x2 = 0.0824 | – | 1135.81 | 2046 | –
x2 = 0.1025 | 1.4e-08 | – | – | 1.905
x2 = 0.124 | – | 1126.98 | 2006 | –
x2 = 0.1501 | – | 1121.45 | 1978 | –
x2 = 0.1527 | 2e-08 | – | – | 1.877
x2 = 0.1784 | – | 1115.46 | 1956 | –
x2 = 0.1835 | 2.5e-08 | – | – | 1.857
x2 = 0.2165 | 2.8e-08 | – | – | 1.835
x2 = 0.2318 | – | 1104.13 | 1897 | –
x2 = 0.2579 | – | 1098.58 | 1874 | –
x2 = 0.2775 | 3.5e-08 | – | – | 1.788
x2 = 0.3067 | 4e-08 | – | – | 1.763
x2 = 0.3103 | – | 1087.46 | 1817 | –
x2 = 0.3637 | – | 1076.12 | 1773 | –
x2 = 0.3641 | 4.7e-08 | – | – | 1.715
x2 = 0.4133 | – | 1065.58 | 1734 | –
x2 = 0.4211 | 5.3e-08 | – | – | 1.663
x2 = 0.466 | – | 1054.4 | 1696 | –
x2 = 0.4727 | 5.8e-08 | – | – | 1.613
x2 = 0.5262 | 6e-08 | – | – | 1.559
x2 = 0.5465 | – | 1037.36 | 1650 | –
x2 = 0.6053 | 5.8e-08 | – | – | 1.474
x2 = 0.6694 | – | 1011.4 | 1592 | –
x2 = 0.7204 | 4.5e-08 | – | – | 1.336
x2 = 0.7773 | – | 988.58 | 1547 | –
x2 = 0.8162 | 3.2e-08 | – | – | 1.203
x2 = 0.8701 | – | 968.9 | 1506 | –
x2 = 0.895 | 2e-08 | – | – | 1.074
x2 = 0.9584 | – | 950.18 | 1463 | –
x2 = 0.967 | 7e-09 | – | – | 0.937

Clc1cccc(Cl)c1 [1,3-dichlorobenzene] + CC(=O)N(C)C
Settings | excess molar volume [m3/mol] | mass density [kg/m3] | speed of sound [m/s] | viscosity [mPa·s]
x2 = 0.0879 | – | 1248.69 | 1277 | –
x2 = 0.1045 | -3e-08 | – | – | 1.024
x2 = 0.1294 | – | 1235.21 | 1284 | –
x2 = 0.1525 | -4.5e-08 | – | – | 1.023
x2 = 0.1659 | – | 1223.28 | 1290 | –
x2 = 0.1941 | -5.4e-08 | – | – | 1.022
x2 = 0.2267 | – | 1203.33 | 1301 | –
x2 = 0.262 | -6.7e-08 | – | – | 1.021
x2 = 0.2831 | – | 1184.73 | 1312 | –
x2 = 0.3235 | -7.5e-08 | – | – | 1.02
x2 = 0.3601 | – | 1159.16 | 1326 | –
x2 = 0.4052 | -7.7e-08 | – | – | 1.019
x2 = 0.42 | – | 1139.1 | 1337 | –
x2 = 0.4672 | -7.3e-08 | – | – | 1.018
x2 = 0.4742 | – | 1120.88 | 1347 | –
x2 = 0.522 | -6.6e-08 | – | – | 1.017
x2 = 0.6086 | – | 1075.37 | 1372 | –
x2 = 0.6531 | -4e-08 | – | – | 1.016
x2 = 0.6847 | – | 1049.44 | 1385 | –
x2 = 0.7245 | -2.5e-08 | – | – | 1.015
x2 = 0.7295 | – | 1034.11 | 1393 | –
x2 = 0.7656 | -1.4e-08 | – | – | 1.014
x2 = 0.7721 | – | 1019.55 | 1400 | –
x2 = 0.804 | -7e-09 | – | – | 1.013
x2 = 0.8389 | – | 996.66 | 1413 | –
x2 = 0.8631 | 2e-09 | – | – | 1.011
x2 = 0.8967 | – | 969.13 | 1429 | –
x2 = 0.9131 | – | – | – | 1.007
x2 = 0.969 | – | 945.84 | 1437 | –
x2 = 0.9743 | – | – | – | 0.952

Cc1cccc([N+](=O)[O-])c1 [3-nitrotoluene] + CC(=O)N(C)C
Settings | excess molar volume [m3/mol] | mass density [kg/m3] | speed of sound [m/s] | viscosity [mPa·s]
x2 = 0.0678 | – | 1133.63 | 2077 | –
x2 = 0.0851 | 1.8e-08 | – | – | 1.76
x2 = 0.1256 | – | 1121.68 | 2039 | –
x2 = 0.1552 | 3e-08 | – | – | 1.752
x2 = 0.1998 | – | 1106.36 | 1958 | –
x2 = 0.242 | 4.2e-08 | – | – | 1.71
x2 = 0.2449 | – | 1097.04 | 1906 | –
x2 = 0.291 | – | 1087.34 | 1857 | –
x2 = 0.2931 | 4.9e-08 | – | – | 1.686
x2 = 0.3451 | 5.4e-08 | – | – | 1.646
x2 = 0.3485 | – | 1075.63 | 1802 | –
x2 = 0.395 | – | 1066.03 | 1763 | –
x2 = 0.4062 | 5.9e-08 | – | – | 1.603
x2 = 0.455 | 6.2e-08 | – | – | 1.568
x2 = 0.4577 | – | 1053.07 | 1729 | –
x2 = 0.4919 | – | 1046.01 | 1699 | –
x2 = 0.5191 | 6.5e-08 | – | – | 1.519
x2 = 0.5429 | – | 1035.49 | 1676 | –
x2 = 0.5532 | 6.6e-08 | – | – | 1.492
x2 = 0.5935 | – | 1025.05 | 1656 | –
x2 = 0.603 | 6.6e-08 | – | – | 1.451
x2 = 0.6512 | 6.5e-08 | – | – | 1.408
x2 = 0.6596 | – | 1011.39 | 1632 | –
x2 = 0.708 | – | 1001.42 | 1616 | –
x2 = 0.7125 | 6.3e-08 | – | – | 1.348
x2 = 0.7561 | 5.9e-08 | – | – | 1.3
x2 = 0.7751 | – | 987.57 | 1589 | –
x2 = 0.8151 | 5.1e-08 | – | – | 1.224
x2 = 0.9654 | – | 948.44 | 1473 | –
x2 = 0.9727 | 1.2e-08 | – | – | 0.935

Cc1ccccc1Cl [2-chlorotoluene] + CC(=O)N(C)C
Settings | excess molar volume [m3/mol] | mass density [kg/m3] | speed of sound [m/s] | viscosity [mPa·s]
x2 = 0.1 | – | 1059.98 | 1305 | –
x2 = 0.106 | -2e-08 | – | – | 0.884
x2 = 0.1231 | -2.2e-08 | – | – | 0.883
x2 = 0.1527 | – | 1053.19 | 1316 | –
x2 = 0.1854 | -3e-08 | – | – | 0.882
x2 = 0.1862 | – | 1048.87 | 1322 | –
x2 = 0.2241 | -3.5e-08 | 1043.95 | 1330 | 0.881
x2 = 0.2585 | – | 1039.48 | 1337 | –
x2 = 0.2672 | -3.9e-08 | – | – | 0.88
x2 = 0.3057 | -4.3e-08 | – | – | 0.879
x2 = 0.3232 | – | 1031.07 | 1350 | –
x2 = 0.3545 | – | 1026.99 | 1356 | –
x2 = 0.3762 | -4.9e-08 | – | – | 0.878
x2 = 0.4095 | -5.1e-08 | – | – | 0.877
x2 = 0.4673 | – | 1012.24 | 1378 | –
x2 = 0.503 | – | 1007.54 | 1384 | –
x2 = 0.5255 | -5.5e-08 | – | – | 0.876
x2 = 0.5483 | – | 1001.55 | 1391 | –
x2 = 0.561 | -5.5e-08 | – | – | 0.875
x2 = 0.6052 | -5.2e-08 | – | – | 0.874
x2 = 0.6722 | – | 985.14 | 1407 | –
x2 = 0.7214 | -4.2e-08 | – | – | 0.873
x2 = 0.7275 | – | 977.79 | 1415 | –
x2 = 0.7625 | – | 973.13 | 1416 | –
x2 = 0.7712 | -3.6e-08 | – | – | 0.872
x2 = 0.8021 | -3.2e-08 | – | – | 0.871
x2 = 0.8525 | – | 961.13 | 1428 | –
x2 = 0.8795 | -2.3e-08 | – | – | 0.869

Cc1ccc(Cl)cc1 [4-chlorotoluene] + CC(=O)N(C)C
Settings | excess molar volume [m3/mol] | mass density [kg/m3] | speed of sound [m/s] | viscosity [mPa·s]
x2 = 0.0699 | – | 1056.58 | 1286 | –
x2 = 0.0876 | -6e-09 | – | – | 0.897
x2 = 0.0969 | – | 1053.3 | 1294 | –
x2 = 0.1205 | -1e-08 | – | – | 0.895
x2 = 0.1267 | – | 1049.63 | 1303 | –
x2 = 0.1564 | -1.2e-08 | – | – | 0.893
x2 = 0.1767 | – | 1043.58 | 1317 | –
x2 = 0.2099 | – | 1039.44 | 1326 | –
x2 = 0.2145 | -1.6e-08 | – | – | 0.89
x2 = 0.2522 | – | 1034.25 | 1339 | –
x2 = 0.2534 | -1.9e-08 | – | – | 0.888
x2 = 0.3011 | -2.2e-08 | – | – | 0.886
x2 = 0.3187 | – | 1026.08 | 1359 | –
x2 = 0.374 | -2.6e-08 | – | – | 0.884
x2 = 0.4342 | – | 1011.83 | 1385 | –
x2 = 0.4664 | – | 1007.85 | 1392 | –
x2 = 0.4933 | – | 1004.51 | 1397 | –
x2 = 0.495 | -2.9e-08 | – | – | 0.882
x2 = 0.5275 | -2.9e-08 | – | – | 0.88
x2 = 0.5443 | – | 998.18 | 1403 | –
x2 = 0.5543 | -2.8e-08 | – | – | 0.879
x2 = 0.6041 | -2.7e-08 | – | – | 0.878
x2 = 0.6513 | – | 984.88 | 1415 | –
x2 = 0.7047 | -2.2e-08 | – | – | 0.876
x2 = 0.7148 | – | 976.97 | 1420 | –
x2 = 0.762 | -1.8e-08 | – | – | 0.874
x2 = 0.7858 | – | 968.12 | 1424 | –
x2 = 0.8241 | -1.4e-08 | – | – | 0.872
x2 = 0.8524 | – | 959.81 | 1425 | –
x2 = 0.8806 | -1e-08 | – | – | 0.87
